This note sets out measurements from patent US20150025120A1, “PYRAZOLE-ALCOHOL COMPOUNDS AND PHARMACEUTICAL USE THEREOF” (JAPAN TOBACCO INC., priority 2013, published 2015).

In data set [1] the test system is Zucker Diabetic Fatty rats. The data set is described as follows: Effect of repeated administration of test compound on HbA1c in ZDF rats. The format is in vivo, rat. Particulars: 1 mg/kg orally once daily, mean ± standard deviation (n = 10). As to the method: Zucker Diabetic Fatty rats (male, 7-week-old, CHARLES RIVER LABORATORIES JAPAN INC.), an animal model for type 2 diabetes, given a purified diet (5.9% fat diet, Oriental Yeast Co., Ltd.) were allocated to the vehicle group and the test compound groups so that no bias occurred in the plasma glucose and insulin levels, HbA1c levels and body weights. Repeated oral doses of the test compound (1 mg/kg/5 mL) were administered to the rats once daily at 3 hr before the dark period. A 0.5% aqueous methylcellulose solution was orally administered in the same manner to the rats of the vehicle group. On day 14 or 21 of administration, blood samples were collected from the tail vein and HbA1c level (%) was measured. Statistical analysis was performed by Dunnett's test. Values of p<0.05 were considered statistically significant.

For data set [2], the target named is T1, hERG current (hERG-transfected HEK293 cells) (Homo sapiens, UniProt Q12809).
T1 construct: host or cells: HEK293
T1 sequence (Q12809 whole entry): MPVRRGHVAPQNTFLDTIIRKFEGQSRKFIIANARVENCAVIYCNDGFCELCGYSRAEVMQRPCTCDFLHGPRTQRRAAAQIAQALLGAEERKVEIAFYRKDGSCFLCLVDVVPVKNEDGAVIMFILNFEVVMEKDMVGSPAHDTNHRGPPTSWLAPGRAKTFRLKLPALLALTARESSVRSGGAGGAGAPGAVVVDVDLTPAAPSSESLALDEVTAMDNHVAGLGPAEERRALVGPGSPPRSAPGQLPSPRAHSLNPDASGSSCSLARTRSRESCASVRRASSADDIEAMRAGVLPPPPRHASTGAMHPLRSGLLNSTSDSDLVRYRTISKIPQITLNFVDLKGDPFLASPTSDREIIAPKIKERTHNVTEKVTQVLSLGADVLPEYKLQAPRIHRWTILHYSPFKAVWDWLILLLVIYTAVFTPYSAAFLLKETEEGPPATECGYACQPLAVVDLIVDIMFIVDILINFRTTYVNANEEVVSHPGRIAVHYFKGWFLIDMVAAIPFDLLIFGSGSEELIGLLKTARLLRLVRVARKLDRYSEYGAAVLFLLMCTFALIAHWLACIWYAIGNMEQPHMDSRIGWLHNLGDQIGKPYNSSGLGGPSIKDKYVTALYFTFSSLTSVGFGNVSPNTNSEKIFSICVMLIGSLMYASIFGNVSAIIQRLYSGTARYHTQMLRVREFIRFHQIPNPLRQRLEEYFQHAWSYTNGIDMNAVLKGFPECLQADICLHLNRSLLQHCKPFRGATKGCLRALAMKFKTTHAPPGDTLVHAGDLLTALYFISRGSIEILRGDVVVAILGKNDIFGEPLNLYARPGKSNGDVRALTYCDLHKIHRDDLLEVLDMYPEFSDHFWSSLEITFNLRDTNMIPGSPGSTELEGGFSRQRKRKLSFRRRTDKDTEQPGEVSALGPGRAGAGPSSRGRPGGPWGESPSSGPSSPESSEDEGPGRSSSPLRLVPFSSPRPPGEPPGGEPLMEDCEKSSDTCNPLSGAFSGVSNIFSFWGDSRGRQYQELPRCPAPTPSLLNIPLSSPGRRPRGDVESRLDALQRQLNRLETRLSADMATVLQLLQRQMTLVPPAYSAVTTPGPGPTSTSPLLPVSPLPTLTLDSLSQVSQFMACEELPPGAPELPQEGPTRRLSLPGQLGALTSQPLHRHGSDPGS
Briefly: hERG whole cell patch clamp test. The format is cell-based. The following applies: for IC50: whole cell patch clamp, hERG-transfected HEK293 cells. As to the method: Using human ether-a-go-go related gene (hERG)-transfected HEK293 cells (Cytomyx Limited), an influence on hERG current was examined according to the whole cell patch clamp technique. The hERG-transfected HEK293 cells were passaged using a CO2 incubator (BNA-111, TABAI ESPEC CORP.) under the set conditions of 37° C., 5% CO2, saturated humidity. Culture containers used were Collagen Type I Coated 75 cm^2 flask (4123-010, AGC TECHNO GLASS CO., Ltd.) and Collagen Type I Coated 35 mm culture dish (4000-010, AGC TECHNO GLASS CO., Ltd.). The culture medium used was E-MEM (Eagle Minimum Essential Medium (Earle's Salts, Nikken biomedical laboratory) added with 10% FCS (Fetal calf serum, BioWest, L.L.C.) and 1% MEM Non-Essential Amino Acids Solution (NEAA, Invitrogen Corporation). Geneticin for the selection of hERG gene expressing cells was added thereto to a concentration of 400 μg/mL. As the cells for the measurement, 3×10^4 hERG-transfected HEK293 cells were plated on a 35 mm culture dish 4 to 7 days before measurement of the hERG current. The culture dish produced for the measurement contained the above-mentioned culture medium without geneticin (Invitrogen Corporation).
The highest evaluation concentration of each compound was determined from the highest concentration at which precipitation was not found in the standard extracellular fluid (NaCl: 140 mmol/L, KCl: 2.5 mmol/L, MgCl2: 2 mmol/L, CaCl2: 2 mmol/L, HEPES: 10 mmol/L, glucose: 10 mmol/L (adjusted to pH 7.4 with Tris-base)). As the application method, each solution to be applied was ejected from a Y-tube having a tip diameter of about 0.25 mm, which was adjacent (about 2 mm) to the cells, and applied to the cells. The ejection rate was about 0.4 mL/min.
The experiment was performed at room temperature under a phase contrast microscope. The 35 mm culture dish plated with the cells was set on a measurement apparatus, and the standard extracellular fluid was continuously applied to the cells from the Y-tube. A glass electrode for the measurement was filled with an intracellular fluid (Potassium Gluconate: 130 mmol/L, KCl: 20 mmol/L, MgCl2: 1 mmol/L, ATP-Mg: 5 mmol/L, EGTA: 3.5 mmol/L, HEPES: 10 mmol/L (adjusted to pH 7.2 with Tris-base)). A conventional whole cell patch clamp method was applied to the cells, and the maintenance electric potential was set to −80 mV. Under a fixed electric potential, the whole cell current was amplified by an amplifier for patch clamp (AXOPATCH-200B, Axon Instruments, Inc.), and the data was loaded into a computer (IMC-P642400, Intermedical Co., Ltd.) using a data acquisition analysis software (pCLAMP 9.2, Axon Instruments, Inc.).
The measurement of the hERG current was performed in the following two steps. In both cases, the hERG current was initiated by giving a command potential (maintenance electric potential −80 mV, prepulse+20 mV, 1.5 sec, test-pulse −50 mV, 1.5 sec).
Step (1): The above-mentioned command potential was given at 0.1 Hz for 2 min.
Step (2): The above-mentioned command potential was subjected to P/3 subtraction of pCLAMP 9.2 to remove leak current. This was repeated three times and an average thereof was taken as hERG current.
Subsequent to step (1), Step (2) was performed (about 3 min), and the maximum tail current obtained by applying a test-pulse to the hERG current obtained by the method of step (2) was taken as hERG current value. Hereafter, the operations of (1) and (2) were alternately repeated until completion of the experiment and the hERG current value was measured.
Stable hERG current value was recorded three times (about 10 min), and the standard extracellular fluid was instantaneously exchanged with each application fluid. The hERG current value was measured three times (about 10 min) in the same manner during perfusion of the application fluid, and the current value obtained by the 3rd measurement was taken as hERG current value after perfusion of the application fluid. […]
A general note: Block of hERG is tested as a sign of cardiac risk.

With `C[C@H](O)COc1cc(-c2cnn(CC(C)(C)O)c2)c2c(c1)[C@@](O)(C(F)(F)F)c1ccccc1-2` [compound (1), (9R)-4-[1-(2-hydroxy-2-methylpropyl)-1H-pyrazol-4-yl]-2-((2S)-2-hydroxypropoxy)-9-(trifluoromethyl)-9H-fluoren-9-ol], the “HbAlc (%)” value in data set [1] (day 21 of administration) came to 3.6 ± 0.3%. Besides, the “hERG inhibition rate (%)” value in data set [2] (concentration 10 μmol/L) is listed as 16.2%; in data set [2] (concentration 100 μmol/L) it was 62.3%. For the same compound, half-maximal inhibition in data set [2] (IC50) required 54.4 µM.
For the compound `CC(C)(O)COc1cc(-c2cnn(CC(C)(C)O)c2)c2c(c1)[C@@](O)(C(F)(F)F)c1ccccc1-2` [compound (2), (9R)-2-(2-hydroxy-2-methylpropoxy)-4-[1-(2-hydroxy-2-methylpropyl)-1H-pyrazol-4-yl]-9-(trifluoromethyl)-9H-fluoren-9-ol], in data set [1] (day 14 of administration), the “HbAlc (%)” value was 3.5 ± 0.1 %. Further, the “hERG inhibition rate (%)” value in data set [2] (concentration 10 μmol/L) is recorded as 13.2%; in data set [2] (concentration 100 μmol/L), 67.6%. In addition, in data set [2], the IC50 amounted to 47.6 µM.
Turning to `CC(C)(O)CCCOc1cc(-c2cnn(CC(C)(C)O)c2)c2c(c1)[C@@](O)(C(F)(F)F)c1ccccc1-2` [compound (4), (9R)-2-(4-hydroxy-4-methylpentyloxy)-4-[1-(2-hydroxy-2-methylpropyl)-1H-pyrazol-4-yl]-9-(trifluoromethyl)-9H-fluoren-9-ol], the “hERG inhibition rate (%)” value came to 18.6% in data set [2] (concentration 10 μmol/L) and 44.0% in data set [2] (concentration 30 μmol/L). In addition, the IC50 in data set [2] is over 30 µM.
On to `NC(=O)Cn1cc(-c2cc(OCCC34CC5CC(CC(O)(C5)C3)C4)cc3c2-c2ccccc2[C@]3(O)C(F)(F)F)cn1` [compound (A), 2-(4-{(9R)-9-Hydroxy-2-[2-(3-hydroxyadamantan-1-yl)ethoxy]-9-(trifluoromethyl)-9H-fluoren-4-yl}-1H-pyrazol-1-yl)acetamide, reference compound], for which, in data set [2] (concentration 10 μmol/L), the “hERG inhibition rate (%)” value was 11.8%.
In the case of `Cn1cc(-c2cc(OCC(C)(C)O)cc3c2-c2ccccc2[C@]3(O)C(F)(F)F)cn1` [compound (B), (9R)-2-(2-Hydroxy-2-methylpropoxy)-4-(1-methyl-1H-pyrazol-4-yl)-9-(trifluoromethyl)-9H-fluoren-9-ol, reference compound], the “hERG inhibition rate (%)” value in data set [2] (concentration 1 μmol/L) is recorded as 17.4%; in data set [2] (concentration 10 μmol/L) it was 72.9%.

What is called IC50 is the midpoint of a concentration-inhibition curve. A high value points to a need for much substance.
